Results taken from patent US20250154123A1, “COOLING COMPOUNDS AND COMPOSITIONS” (V. MANE FILS, priority 2022, published 2025).

Legend:
Type in all cases: cell-based
hTRPM8 [1] = target: T1, hTRPM8 (Homo sapiens, UniProt Q7Z2W7); experiment: Secondary in vitro screening on hTRPM8 at 5 μM versus WS-3; details: WS3 as reference compound
T1 construct: expressed in transfected cells; host or cells: CHO-KJ cells [sic]
Method: (§1) The compounds were evaluated in vitro on CHO-KJ cells expressing the gene encoding the hTRPM8 ion channel (Table 1). Channel activation is determined by fluorometric measurement of […] calcium using FLUO-8. The activity of the compounds was measured relative to icilin (known hTRPM8 agonist).
The compounds 1 to 40 were tested on hTRPM8 at 5 μM using WS3 as the reference compound (Table 2).

hTRPM8 ion channel = target: T2, hTRPM8 ion channel (Homo sapiens, UniProt Q7Z2W7); experiment: Primary in vitro screening on hTRPM8 (CHO-KJ cells, FLUO-8 calcium fluorometry, relative to icilin); details: for % activation vs iciline: CHO-KJ cells expressing hTRPM8
T2 construct: expressed in transfected cells; host or cells: CHO-KJ cells [sic]
T2 sequence (Q7Z2W7 whole entry): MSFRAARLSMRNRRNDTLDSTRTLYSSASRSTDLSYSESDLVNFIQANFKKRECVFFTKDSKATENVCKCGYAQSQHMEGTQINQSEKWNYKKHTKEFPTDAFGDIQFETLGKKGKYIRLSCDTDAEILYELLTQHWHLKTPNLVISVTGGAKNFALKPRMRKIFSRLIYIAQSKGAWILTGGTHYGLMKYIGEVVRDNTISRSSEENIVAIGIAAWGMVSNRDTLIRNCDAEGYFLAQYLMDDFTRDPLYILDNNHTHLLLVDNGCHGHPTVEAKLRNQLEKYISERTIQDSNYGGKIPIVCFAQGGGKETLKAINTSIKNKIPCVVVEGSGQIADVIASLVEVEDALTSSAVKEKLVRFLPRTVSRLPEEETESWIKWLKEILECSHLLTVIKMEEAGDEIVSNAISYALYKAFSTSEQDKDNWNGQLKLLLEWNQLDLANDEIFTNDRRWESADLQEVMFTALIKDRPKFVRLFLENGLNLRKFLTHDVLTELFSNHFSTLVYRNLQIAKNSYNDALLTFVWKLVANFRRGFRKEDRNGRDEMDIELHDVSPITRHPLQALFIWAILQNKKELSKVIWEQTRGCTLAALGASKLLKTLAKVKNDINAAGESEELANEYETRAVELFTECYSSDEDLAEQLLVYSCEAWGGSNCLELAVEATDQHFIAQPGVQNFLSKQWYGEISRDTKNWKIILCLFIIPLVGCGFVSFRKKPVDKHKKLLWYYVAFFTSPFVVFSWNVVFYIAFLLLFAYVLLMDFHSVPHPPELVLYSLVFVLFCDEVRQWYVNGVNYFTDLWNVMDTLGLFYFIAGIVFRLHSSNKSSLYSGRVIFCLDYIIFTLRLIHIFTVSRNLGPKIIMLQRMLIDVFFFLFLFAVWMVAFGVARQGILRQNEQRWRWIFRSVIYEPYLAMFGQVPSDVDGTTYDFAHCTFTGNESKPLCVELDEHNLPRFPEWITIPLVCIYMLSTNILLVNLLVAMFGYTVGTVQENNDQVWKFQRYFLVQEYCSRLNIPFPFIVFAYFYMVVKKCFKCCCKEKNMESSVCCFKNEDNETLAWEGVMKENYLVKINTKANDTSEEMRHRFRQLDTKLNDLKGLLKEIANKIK
Method: as §1

hTRPM8 [2] = target: T1, hTRPM8; experiment: EC50 measurement on hTRPM8 (response curve); details: for EC50: hTRPM8, response curve
Method: as §1
A response curve was developed for compounds 1, 3, 5 and 37 which made it possible to determine the EC50 (half maximal effective concentration) values on hTRPM8 and compare them with the EC50 values of the comparative compounds (Table 3).

T1 sequence (Q7Z2W7 whole entry): as above

| Structure (SMILES) | activation at 5 µM (hTRPM8 [1]) [%] | also measured |
| --- | --- | --- |
| CC(C)C1CCC(C)(C)CC1(CO)CO (single isomer, unassigned) [Compound 30, (2-isopropyl-5,5-dimethylcyclohexane-1,1-diyl)dimethanol] | 71 |  |
| CC1OCC2(CO1)C[C@H](C)CC[C@H]2C(C)C (stereo partly drawn) [Compound 2, (7S,1OR)-7-isopropyl-3,10-dimethyl-2,4-dioxaspiro[5.5]undecane] | 3 | % activation vs iciline (hTRPM8 ion channel; concentration 109 μM): 26% |
| CC(C)[C@@H]1CC[C@@H](C)CC12COC(C)(C)OC2 [Compound 3, (7S,1OR)-7-isopropyl-3,3,10-trimethyl-2,4-dioxaspiro[5.5]undecane] | 94 | % activation vs iciline (hTRPM8 ion channel; concentration 104 μM): 99%; activation on hTRPM8 compared with comparative molecules (Physcool, WS-5, WS-3, l-isopulegol, l-menthol, menthyl lactate) (hTRPM8 ion channel; primary screening, Table 1): greater activations than the comparative molecules; EC50 on hTRPM8 compared with WS-3 and WS-5 (hTRPM8 [2]; Table 3): EC50 values lower than WS-3™ and similar to WS-5™; EC50 (hTRPM8 [2]): 2.5 µM |
| CCC1OCC2(CO1)C[C@H](C)CC[C@H]2C(C)C (stereo partly drawn) [Compound 4, (7S,1OR)-3-ethyl-7-isopropyl-10-methyl-2,4-dioxaspiro[5.5]undecane] | -1 | % activation vs iciline (hTRPM8 ion channel; concentration 101 μM): 39% |
| CC(C)[C@@H]1CC[C@@H](C)CC12COCOC2 [Compound 6, (7S,1OR)-7-isopropyl-10-methyl-2,4-dioxaspiro[5.5]undecane] | 3 | % activation vs iciline (hTRPM8 ion channel; concentration 104 μM): 32% |
| CC(C)[C@@H]1CC[C@@H](C)CC12COC1(C[C@H](C)CC[C@H]1C(C)C)OC2 (stereo partly drawn) [Compound 7, (1S,4R,10S,13R)-1,10-diisopropyl-4,13-dimethyl-7,16-dioxadispiro [5.2.5^90.2^6]hexadecane] | 0 |  |
| CC(C)[C@@H]1CC[C@@H](C)CC1(C=O)C=O [Compound 8, (2S,5R)-2-isopropyl-5-methylcyclohexane-1,1-dicarbaldehyde] | 6 |  |
| CC(=O)OCC1(COC(C)=O)C[C@H](C)CC[C@H]1C(C)C [Compound 9, ((2S,5R)-2-isopropyl-5-methylcyclohexane-1,1-diyl)bis(methylene) diacetate] | 0 |  |
| CC1CC(C)(C)CC(CO)(CO)C1 (centres unmarked) [Compound 10, (3,3,5-trimethylcyclohexane-1,1-diyl)dimethanol] | 10 |  |
| CC1CC(C)(C)CC2(COC(C)OC2)C1 (centres unmarked) [Compound 11, 3,8,8,10-tetramethyl-2,4-dioxaspiro[5.5]undecane] | 3 |  |
| CC1CC(C)(C)CC2(COC(C)(C)OC2)C1 (centres unmarked) [Compound 12, 3,3,8,8,10-pentamethyl-2,4-dioxaspiro[5.5]undecane] | 1 |  |
| CCC1(C)OCC2(CO1)C[C@H](C)CC[C@H]2C(C)C (stereo partly drawn) [Compound 13, (7S,1OR)-3-ethyl-7-isopropyl-3,10-dimethyl-2,4-dioxaspiro[5.5]undecane] | 1 |  |
| CCCC1OCC2(CO1)C[C@H](C)CC[C@H]2C(C)C (stereo partly drawn) [Compound 14, (7S,1OR)-7-isopropyl-10-methyl-3-propyl-2,4-dioxaspiro[5.5]undecane] | -1 |  |
| CC(C)C1OCC2(CO1)C[C@H](C)CC[C@H]2C(C)C (stereo partly drawn) [Compound 15, (7S,1OR)-3,7-diisopropyl-10-methyl-2,4-dioxaspiro[5.5]undecane] | -6 |  |
| CCC(C)C1OCC2(CO1)C[C@H](C)CC[C@H]2C(C)C (stereo partly drawn) [Compound 16, (7S,1OR)-3-(sec-butyl)-7-isopropyl-10-methyl-2,4-dioxaspiro[5.5]undecane] | -1 |  |
| COCC1(COC)C[C@H](C)CC[C@H]1C(C)C [Compound 17, (2S,5R)-2-isopropyl-1,1-bis(methoxymethyl)-5-methylcyclohexane] | 1 |  |
| CC(C)[C@@H]1CC[C@@H](C)CC12COC(c1ccccc1)OC2 (stereo partly drawn) [Compound 18, (7S,1OR)-7-isopropyl-10-methyl-3-phenyl-2,4-dioxaspiro[5.5]undecane] | 3 |  |
| CC1(C)CCCC(CO)(CO)C1 [Compound 20, (3,3-dimethylcyclohexane-1,1-diyl)dimethanol] | 4 |  |
| CC(C)[C@@H]1CC[C@@H](C)CC1(COC(=O)CCC(=O)O)COC(=O)CCC(=O)O [Compound 21, 4,4′-((((2S,5R)-2-isopropyl-5-methylcyclohexane-1,1-diyl)bis (methylene))bis(oxy))bis(4-oxobutanoic acid)] | -2 |  |
| CC(C)[C@@H]1CC[C@@H](C)CC12COC(C)(c1ccccc1)OC2 (stereo partly drawn) [Compound 22, (7S,1OR)-7-isopropyl-3,10-dimethyl-3-phenyl-2,4-dioxaspiro[5.5]undecane] | 13 |  |
| CC(C)[C@@H]1CC[C@@H](C)CC12COC(c1ccccn1)OC2 (stereo partly drawn) [Compound 23, 2-((7S,10R)-7-isopropyl-10-methyl-2,4-dioxaspiro[5.5]undecan-3-yl) pyridine] | 4 |  |
| CC(C)[C@@H]1CC[C@@H](C)CC12COC(c1cccs1)OC2 (stereo partly drawn) [Compound 24, (7S,1OR)-7-isopropyl-10-methyl-3-(thiophen-2-yl)-2,4-dioxaspiro[5.5]undecane] | 3 |  |

| Structure (SMILES) | activation at 5 µM (hTRPM8 [1]) [%] | also measured |
| --- | --- | --- |
| CSCCC1OCC2(CO1)C[C@H](C)CC[C@H]2C(C)C (stereo partly drawn) [Compound 25, (7S,1OR)-7-isopropyl-10-methyl-3-(2-(methylthio)ethyl)-2,4-dioxaspiro [5.5]undecane] | 3 |  |
| CC1OCC2(CCCC(C)(C)C2)CO1 (centres unmarked) [Compound 26, 3,8,8-trimethyl-2,4-dioxaspiro[5.5]undecane] | 3 |  |
| CCC(C)C1CCCCC1(CO)CO (centres unmarked) [Compound 27, (2-(sec-butyl)cyclohexane-1,1-diyl)dimethanol] | 40 |  |
| CCOC(=O)C1OCC2(CO1)C[C@H](C)CC[C@H]2C(C)C (stereo partly drawn) [Compound 28, Ethyl (7S,1OR)-7-isopropyl-10-methyl-2,4-dioxaspiro[5.5]undecane-3-carboxylate] | 5 |  |
| CC(C)[C@@H]1CC[C@@H](C)CC1(CCO)CCO [Compound 29, 2,2′-((2S,5R)-2-isopropyl-5-methylcyclohexane-1,1-diyl)bis(ethan-1-ol)] | 26 |  |
| CCC(C)C1CCCCC12COC(C)OC2 (centres unmarked) [Compound 31, 7-(sec-butyl)-3-methyl-2,4-dioxaspiro[5.5]undecane] | -2 |  |
| CC(=O)OCC1(CO)C[C@H](C)CC[C@H]1C(C)C (stereo partly drawn) [Compound 32, ((2S,5R)-1-(hydroxymethyl)-2-isopropyl-5-methylcyclohexyl)methyl acetate] | 4 |  |
| CC1OCC2(CO1)CC(C)(C)CCC2C(C)C (centres unmarked) [Compound 33, 7-isopropyl-3,10,10-trimethyl-2,4-dioxaspiro[5.5]undecane] | 1 |  |
| CC(C)[C@@H]1CC[C@@H](C)CC1(C(C)O)C(C)O (stereo partly drawn) [Compound 34, 1,1′-((2S,5R)-2-isopropyl-5-methylcyclohexane-1,1-diyl)bis(ethan-1-ol)] | 21 |  |
| C=C(C)[C@@H]1CC[C@@H](C)C[C@H]1C(CO)CO [Compound 35, 2-((1R,2R,5R)-5-methyl-2-(prop-1-en-2-yl)cyclohexyl)propane-1,3-diol] | 14 |  |
| C=C(C)[C@@H]1CC[C@@H](C)C[C@H]1C1COC(C)OC1 (stereo partly drawn) [Compound 36, 2-methyl-5-((1R,2R,5R)-5-methyl-2-(prop-1-en-2-yl)cyclohexyl)-1,3-dioxane] | 6 |  |
| CC(C)[C@@H]1CC[C@@H](C)C[C@H]1C(CO)CO [Compound 37, 2-((1R,2S,5R)-2-isopropyl-5-methylcyclohexyl)propane-1,3-diol] | 65 | EC50 (hTRPM8 [2]): 70 µM |
| CC(C)[C@@H]1CC[C@@H](C)CC1(CO)COCc1ccccc1 (stereo partly drawn) [Compound 38, ((2S,5R)-1-((benzyloxy)methyl)-2-isopropyl-5-methylcyclohexyl) methanol] | 8 |  |
| CC(C)[C@@H]1CC[C@@H](C)CC1(CO)C(=O)O (stereo partly drawn) [Compound 39, (2S,5R)-1-(hydroxymethyl)-2-isopropyl-5-methylcyclohexane-1-carboxylic acid] | 16 |  |
| CC1(C)CC(C)(C)CC(CO)(CO)C1 [Compound 40, (3,3,5,5-tetramethylcyclohexane-1,1-diyl)dimethanol] | 8 |  |
| CC(C)[C@@H]1CC[C@@H](C)C[C@H]1OC(=O)CCC(=O)O [Physcool ™, reference compound] |  | % activation vs iciline (hTRPM8 ion channel): -2% |
| CCNC(=O)C1CC(C)CCC1C(C)C (centres unmarked) [WS-3 ™, reference compound] |  | % activation vs iciline (hTRPM8 ion channel; concentration 119 μM): 76%; EC50 (hTRPM8 [2]): 8 µM |
| CCOC(=O)CNC(=O)[C@@H]1C[C@H](C)CC[C@H]1C(C)C [WS-5 ™, reference compound] |  | % activation vs iciline (hTRPM8 ion channel): 73%; EC50 (hTRPM8 [2]): 1 µM |
| C=C(C)[C@@H]1CC[C@@H](C)C[C@H]1O [l-isopulegol, reference compound] |  | % activation vs iciline (hTRPM8 ion channel; concentration 123 μM): 51% |
| CC(C)[C@@H]1CC[C@@H](C)C[C@H]1O [l-menthol, reference compound] |  | % activation vs iciline (hTRPM8 ion channel; concentration 114 μM): 78% |
| CC1CCC(C(C)C)C(OC(=O)C(C)O)C1 (centres unmarked) [menthyl lactate, reference compound] |  | % activation vs iciline (hTRPM8 ion channel; concentration 116 μM): 53% |
